In patent US7501513B2, “Immunosuppressive effects of pteridine derivatives” (4 AZA Bioscience NV, priority 2003, dated 2009) one finds IC50 data, which are given here for 20 compounds.

Where two headings read alike, the source gives them in different places.

One assay has as its system human TNF-α. Nature of the assay: TNF-α assay: suppression of TNF-α production by LPS-stimulated PBMC (ELISA). Type of assay: cell-based. The conditions noted are these: LPS 1 μg/ml, 72 hours. Here is the method:
Peripheral blood mononuclear cells (herein referred as PBMC), in response to stimulation by lipopolysaccharide (LPS), a gram-negative bacterial endotoxin, produce various […], in particular human TNF-α and IL-1 β. Inhibition of the activation of PBMC can therefore be measured by the level of suppression of the production of TNF-α or IL-1 β by PBMC in response to stimulation by LPS.
(§1) Such inhibition measurement was performed as follows: PBMC were isolated from heparinized peripheral blood by density gradient centrifugation over Lymphoprep (commercially available from Nycomed, Norway). LPS was then added to the PMBC suspension in complete medium (10^6 cells/ml) at a final concentration of 1 μg/ml. The pteridine derivative to be tested was added at different concentrations (0.1 μM, 1 μM and 10 μM) and the cells were incubated at 37° C. for 72 hours in 5% CO2. The supernatants were collected, then TNF-α and/or IL-1 β concentrations were measured with respectively an anti-TNF-α antibody or an anti-IL-1 β antibody in a sandwich ELISA (Duo Set ELISA human TNFα, commercially available from R&D Systems, United Kingdom). The calorimetric reading of the ELISA was measured by a Multiskan RC plate reader (commercially available from ThermoLabsystems, Finland) at 450 nm (reference wavelength: 690 nm). Data analysis was performed with Ascent software 2.6. (also from ThermoLabsystems, Finland): a standard curve (recombinant human TNFα) was drawn and the amount (pg/ml) of each sample on the standard curve was determined.
The % suppression of human TNFα production or human IL-1 β by the pteridine derivatives of the invention (drugs) was calculated using the formula: […]
Peripheral blood mononuclear cells (herein referred as PBMC), in response to stimulation by lipopolysaccharide (hereinafter LPS), a gram-negative bacterial endotoxin, produce various […], in particular human TNF-α. Inhibition of the activation of PBMC can therefore be measured by the level of suppression of the production of TNF-α by PBMC in response to stimulation by LPS.
as §1, with “TNF-α” for “TNF-α and/or IL-1 β”, “with” for “with respectively”, “anti-TNF-α” for “anti-TNF-α antibody or an anti-IL-1 β”, “TNF-α,” for “TNFα,”, “colorimetric” for “calorimetric”
The % suppression of human TNFα production by the pteridine derivatives of the invention (drugs) was calculated using the formula: […]
In general terms: An ELISA detects its analyte on a solid surface through an enzyme-linked reagent.

Assay [1] has as its system Peripheral blood mononuclear cells. The assay can be described thus: Mixed lymphocyte reaction (MLR) test. Type of assay: cell-based, human. Conditions: 50% suppression of the MLR. Here is the method: (§2) Pteridine derivatives were first dissolved (10 mM) in dimethylsulfoxide (hereinafter referred as DMSO) and further diluted in culture medium before use for the following in vitro experiments. The commercially available culture medium consisted of RPMI-1640+10% foetal calf serum (FCS). Some pteridine derivatives described the previous examples were tested in the following lymphocyte activation tests:
(§3) Peripheral blood mononuclear cells (hereinafter referred as PBMC) were isolated from heparinized peripheral blood by density gradient centrifugation over Lymphoprep (Nycomed, Maorstua, Norway). Allogeneic PBMC or Eppstein-Barr Virus-transformed human B cells [commercially available under the trade name RPMI1788 (ATCC name CCL156)] which strongly express B7-1 and B7-2 antigens were used as stimulator cells after irradiation with 30 Gy. MLR was performed in triplicate wells. After 5 days incubation at 37° C., 1 μCi [^3H]-thymidine was added to each cup. After a further 16 hours incubation, cells were harvested and counted in a β-counter. Inhibition of proliferation by a compound (drug) described in some of the previous examples was counted using the formula:
[formula] wherein cpm is the thymidine count per minute. The MLR assay is regarded by those skilled in the art as an in vitro analogue of the transplant rejection since it is based on the recognition of allogeneic major histocompatibility antigens on the stimulator leukocytes, by responding lymphocytes. Assays for CD3 and CD 28
Pteridine derivatives were first dissolved (10 mM) in dimethylsulfoxide (hereinafter referred as DMSO) and further diluted in culture medium before use for the following in vitro experiments. The commercially available culture medium consisted of RPMI-1640+10% foetal calf serum (FCS). Some pteridine derivatives described in the previous examples (as indicated in table 3 below) were tested in the following mixed lymphocyte reaction (MLR) assay.
as §3, with “CCL156)]which” for “CCL156)] which”
[formula] wherein cpm is the thymidine count per minute. The MLR assay is regarded by those skilled in the art as an in vitro analogue of the transplant rejection since it is based on the recognition of allogeneic major histocompatibility antigens on the stimulator leukocytes, by responding lymphocytes.

Assay [2] concerns Highly purified T cells stimulated by anti-CD3 mAb. The assay can be described thus: CD3 assay: T-cell proliferation stimulated by immobilized anti-CD3 mAb + PMA (BrdU). The conditions noted are these: 50% reduction in T-cell proliferation, read-out: CD 3 IC50. Type of assay: cell-based, human. The method, then: as §2
(§4) T cells were purified by removing non-T cells. Briefly, monocytes were removed by cold agglutination. The resulting lymphoid cells were further purified by a cell enrichment immunocolumn [Cellect Human T commercially available from Biotex, Edmonton, Alberta, Canada)] by a process of negative selection. More than 95% of the B cells were removed with this procedure. After depletion, the resulting T cell preparation was highly purified, i.e. these cells could not be activated by phytohaemagglutinin (PHA) or rIL-2 alone at concentrations capable of stimulating RBMC prior to deletion.
(§5) Highly purified T cells (10^6/ml) were stimulated by immobilized anti-CD3 or anti-CD28 monoclonal antibodies (hereinafter referred as mAb) in the presence of phorbol myristate acetate (hereinafter referred as PMA). Anti-CD3 mAb (available from CLB, Amsterdam, Netherlands) were fixed on a 96-microwell plates by incubating the wells with 50 μl of mAb solution (1/800 dilution in culture medium). For anti-CD28 mAb (available from CLB, Amsterdam, Netherlands) 50 μl (1/650 dilution in culture medium) was added directly to the wells. Further, a 20 μl PMA (commercially available from Sigma, St. Louis, Mo., USA) solution (final concentration: 0.5 ng/ml) was added. Subsequently, 20 μl of a pteridine derivative described in the previous examples were added by serial dilution in triplicate wells. Finally 100 μl of the T-cell suspension (10^6/ml) was added. After 48-hour incubation at 37° C. in 5% CO2, 20 μl of a bromo-deuridine (hereinafter referred as BrdU) 100 μM solution (commercially available as Cell Proliferation Elisa from Boehringer-Mannheim Belgium) was added to each well. After a further overnight incubation, T-cell proliferation was measured using a calorimetric immuno-assay for qualification of cell proliferation based on the incorporation of BrdU during DNA synthesis. Optical density (hereinafter referred as OD) was measured by a Behring EL311 plate reader at 450 nm (reference wavelength: 690 nm). Inhibition of proliferation by the pteridine derivative (drug) was counted while using the formula: […]

The test system of assay [3] is Highly purified T cells stimulated by anti-CD28 mAb. The assay can be described thus: CD28 assay: T-cell proliferation stimulated by anti-CD28 mAb + PMA (BrdU). Type of assay: cell-based, human. Conditions: 50% reduction in T-cell proliferation. The method, then: as §2, §4, §5

Consider `COc1ccc(-c2cnc3nc(N)nc(N4CCC(C)CC4)c3n2)cc1OC` [Example 115], for which the half-inhibitory concentration (IC50) in the assay on human TNF-α (Table 4) was found to be 0.3 µM; in assay [1] (Table 3), 0.8 µM.

As for `CCS(=O)(=O)Nc1cccc(-c2cnc3nc(N)nc(N4CCOCC4)c3n2)c1` [Example 97, 2-amino-4-morpholino-6-(3-ethylsulfonylaminophenyl)pteridine], the IC50 in the assay on human TNF-α (Homo sapiens, PBMC, Table 4) is more than 10 µM; in assay [1] (Homo sapiens, PBMC, Table 3) it was 3.3 µM.

For the compound `COc1ccc(-c2cnc3nc(N)nc(NCCc4ccccc4)c3n2)cc1OC` [Example 114], the 50% inhibitory concentration (IC50) stood at 7.1 µM with human TNF-α (Table 4) and 6 µM in assay [1] (Table 3).

As for `COc1ccc(-c2cnc3nc(N)nc(NCc4cccs4)c3n2)cc1OC` [Example 116], the results for the IC50 (in the assay on human TNF-α (Table 4); in assay [1] (Table 3)) were 7.2 µM and 4.1 µM, respectively.

For the compound `Nc1ccc(-c2cnc3nc(N)nc(N4CCOCC4)c3n2)cc1` [Example 74, 2-amino-morpholino-6-(4-aminophenyl)pteridine], the half-inhibitory concentration (IC50) with human TNF-α (Table 4) was 2.5 µM; in assay [1] (Table 3), 1.1 µM.

As to `CCOc1nc(N)nc2ncc(-c3ccc(C(F)(F)F)cc3)nc12` [Example 18, 2-amino-6-(p-trifluoromethylphenyl)-4-ethoxy-pteridine], the half-maximal inhibitory concentration (IC50) turned out to be 10 µM in assay [2] (Homo sapiens); 0.8 µM in assay [3] (Homo sapiens); 10 µM in assay [1] (Homo sapiens, PBMC, Table 1).

As to `CC(=O)Nc1ccc(-c2cnc3nc(N)nc(N4CCOCC4)c3n2)cc1` [Example 72, 2-amino-4-morpholino-6-(4-acetanilide)pteridine], the IC50 in the assay with human TNF-α (Table 4) was 8.4 µM; in assay [1] (Table 3) it was 8.6 µM.

Consider `CCOc1ccc(-c2cnc3nc(N)nc(N4CCOCC4)c3n2)cc1` [Example 103, 2-amino-4-morpholino-6-(4-ethoxyphenyl)pteridine], for which the IC50 is more than 10 µM in the assay with human TNF-α (Homo sapiens, PBMC, Table 4) and 3.7 µM in assay [1] (Homo sapiens, PBMC, Table 3).

`COc1ccc(-c2cnc3nc(N)nc(N(CCO)CCO)c3n2)cc1OC` [Example 112]: the results for the IC50 (in the assay with human TNF-α (Table 4); in assay [1] (Table 3)) were 3.4 µM and 6 µM, respectively.

Regarding `CC[C@H](C)Nc1nc(N)nc2ncc(-c3ccc(OC)c(OC)c3)nc12` [Example 120], the half-maximal inhibitory concentration (IC50) with human TNF-α (Table 4) is 0.3 µM; in assay [1] (Table 3) it was 0.2 µM.

On to `CCOc1nc(N)nc2ncc(-c3ccc(F)c(F)c3)nc12` [Example 16], for which the results for the half-inhibitory concentration (IC50) in assay [2], in assay [3] and in assay [1] (Table 1) were 9 µM, 4 µM and more than 10 µM, respectively.

Consider `CCCOc1ccc(-c2cnc3nc(N)nc(N4CCOCC4)c3n2)cc1` [Example 107, 2-amino-4-morpholino-6-(4-propoxy-phenyl)pteridine], for which the IC50 with human TNF-α (Homo sapiens, PBMC, Table 4) was more than 10 µM; in assay [1] (Homo sapiens, PBMC, Table 3) it was 6.8 µM.

As to `Nc1nc(N2CCOCC2)c2nc(-c3ccc(O)cc3)cnc2n1` [Example 102, 2-amino-4-morpholino-6-(4-hydroxyphenyl)pteridine], the IC50 with human TNF-α (Homo sapiens, PBMC, Table 4) was found to be 2.1 µM; in assay [1] (Homo sapiens, PBMC, Table 3) it was 4.3 µM.

Take `COc1ccc(-c2cnc3nc(N)nc(N4CCSCC4)c3n2)cc1OC` [Example 118]: the IC50 is 0.5 µM with human TNF-α (Table 4) and 0.4 µM in assay [1] (Table 3).

With `CCOc1nc(N)nc2ncc(-c3ccsc3)nc12` [Example 20, 2-amino-6-(3-thienyl)-4-ethoxy-pteridine], the IC50 in assay [2] (Homo sapiens) was 15 µM; in assay [3] (Homo sapiens), 0.7 µM.

Turning to `CC(C)(C)OC(=O)N[C@@H](Cc1ccccc1)C(=O)Nc1cccc(-c2cnc3nc(N)nc(N4CCOCC4)c3n2)c1` [Example 98, 2-amino-4-morpholino-6-[3-Boc-(L)-phenylalanine-aminophenyl]pteridine], the 50% inhibitory concentration (IC50) with human TNF-α (Table 4) stood at 2.9 µM; in assay [1] (Table 3) it was 3.9 µM.

`CC(C)Oc1nc(N)nc2ncc(-c3ccc(C#N)cc3)nc12` [Example 42, 2-amino-6-(p-cyanophenyl)-4-isopropoxypteridine] showed an IC50 with human TNF-α (Homo sapiens, PBMC, Table 2) of 6.3 µM.

In the case of `CC[C@@H](C)Nc1nc(N)nc2ncc(-c3ccc(OC)c(OC)c3)nc12` [Example 119], the results for the IC50 (in the assay with human TNF-α (Table 4); in assay [1] (Table 3)) were 0.2 µM and 0.5 µM, respectively.

For `CCOc1nc(N)nc2ncc(-c3ccc(OC)cc3)nc12` [Example 13, 2-amino-6-(p-methoxyphenyl)-4-ethoxy-pteridine], half-maximal inhibition in the assay on human TNF-α (Homo sapiens, PBMC, Table 2) (IC50) was put at 4.5 µM.

In the case of `Cc1ccc(-c2cnc3nc(N)nc(OC(C)C)c3n2)cc1C` [Example 32, 2-amino-6-(3,4-dimethylphenyl)-4-isopropoxypteridine], the IC50 in the assay with human TNF-α (Homo sapiens, PBMC, Table 2) was 6.7 µM; in assay [1] (Homo sapiens, PBMC, Table 1) it was 10 µM.

As usually defined, the IC50 is the concentration that inhibits the measured activity by half.
